According to patent US10253002B2, “Compounds and methods of treating infections” (Neoculi Pty Ltd., priority 2013, dated 2019):
Values after ≈ are worked out from the molar mass of the structure shown. Read-outs that look alike come from different tables or passages of the source.

What was measured:
[1] = system: vancomycin-resistant Enterococcus spp. (VRE); assay: Broth microdilution MIC (CLSI), Example 1; assay type: cell-based
Procedure: Cation adjusted Mueller Hinton Broth (CAMHB) was prepared using 100 mL sterile Mueller Hinton broth (pH adjusted). To each 100 mL volume, 125 μL of calcium stock solution (10 mg Ca^2+ per ml) and 43 μL magnesium stock solution (10 mg Mg^2+ per mL) was aseptically added. Sufficient broth is made up for daily use, with unused portions being stored at 4° C. overnight.
Potency was described as 1000 mg/g or 100%. The powder was dissolved in 10 mL DMSO and 1 mL volumes were aliquoted into eppendorf tubes and stored at −80° C.
Serial dilutions were prepared in 96 well plates were set up in a safety cabinet according to methods standard in the art. Briefly: 90 μL of the working antibiotic solution was added to each well in Column 12 of the plate, and mixed well, before 90 μL was transferred to column 11. The solutions were mixed again, and then transferred to the next column as before, continuing the dilutions through to column 3. Mixing the well requires the pick up and expulsion of 90 μL in each well 3-4 times before picking up and transferring the 90 μL to the next well. […] The trays were set up as follows: 2 strains were tested in duplicate in one tray, such that strain 1 was located in rows A to D, strain 2 was located in rows E to H, etc.
Fresh cultures of bacteria were prepared for testing on sheep blood agar (SBA), and overnight incubation at 37° C. as follows; 2-3 colonies of each strain in 7 mL sterile saline, and the OD600 measured as an indication of the density (approx. […] or 0.5 McFarland Standard). The bacterial suspension was adjusted to a final absorbance of 0.08 to 0.100, using saline to achieve correct density, and as the blank. Within 15 minutes of preparation, the adjusted bacterial suspension with sterile saline 1:20 (1 mL into 19 mL sterile saline) to achieve a final bacterial concentration of 4 to 5×10^6 CFU/mL. The bacterial solution was placed into a sterile trough and 10 μL of bacterial solution added into wells 2 through to 12 on each required row (dilution of 1:10, with final concentration of bacteria in wells=5×10^5 CFU/mL). The tray was sealed and incubated at 37° C. for 18-24 h. The purity of bacterial suspension was confirmed by streaking out 50 μL of the 1:20 dilution onto a SBA plate, which was incubated for 37° C. for 18 h and examined. Viable counts were carried out to ensure that the correct concentration of bacteria and been added to the wells. The diluted bacterial solution (4 to 5×10^6 CFU/mL) was diluted 1:10 downwards by adding 100 μL to 900 μL of sterile saline in sterile tubes, and the serial dilutions continued 1:10 for 5 tubes. 100 μL (4-5 drops) of the 4th and 5th dilutions (tube 4=105 and tube 5=10^6 CFU/ml) was plated around in duplicate on pre-dried PCA agar plates and incubated at 37° C. overnight. The following day the number of colonies on the plates was counted and the average count in 100 μL obtained. The study was multiplied by 10 to obtain a viable bacterial count per mL.
Minimum inhibitory concentrations (μg/mL) were determined using the broth microdilution method recommended by the Clinical and Laboratory Standards Institute (CLSI) (Methods for Dilution Antimicrobial Susceptibility Tests for Bacteria That Grow Aerobically; Approved Standard—Seventh Edition. CLSI M7-A7, 2006; Performance Standards for Antimicrobial Disk and Dilution Susceptibility Tests for Bacteria Isolated from Animals; Approved Standard—Second Edition. CLSI M31-A2, 2002; Performance Standards for Antimicrobial Susceptibility Testing; CLSI M2-A9, 2006).
MIC breakpoints were determined by visual assessment and then confirmed using an ELISA plate reader, measuring absorbance levels at 450 nm. Bacterial growth (turbidity) in the wells with antimicrobial was compared with the amount of growth (turbidity) in the growth-control well (containing no antimicrobial).

[2] = system: S. aureus clinical isolates (MRSA and MSSA); assay: Broth microdilution MIC, Example 4; assay type: cell-based, Staphylococcus aureus; details: for MIC / MIC50 / MIC90: Staphylococcus aureus; for MIC: 24 h
Procedure: Microtiter plates containing two-fold dilutions of each antimicrobial agent were inoculated with ˜10^5 CFU/ml of each isolate in a 100 μL final volume. Plates were incubated for 24 h at 37° C. Turbidity (absorbance at OD600) was measured using a Bio-Rad Benchmark Plus microplate spectrophotometer in Microplate Manager® version 5.2.1 (Bio-Rad). Minimum inhibitory concentration (MIC) endpoints were defined as the lowest antimicrobial concentration assessed by the spectrophotometer that inhibited bacterial growth. ATCC 49775 was included in the isolate collection as a control organism using breakpoints defined by the CLSI. The MIC50, MIC90 (concentrations that inhibited growth of the lower 50% and 90% of total organisms, respectively), and MIC range (minimum and maximum) were calculated to profile the antimicrobial susceptibility of the isolate collection.

[3] = system: Escherichia coli; assay: Broth microdilution MIC, Example 7 (NCL812 and analogues); assay type: cell-based
[4] = Methicillin-susceptible staphylococci (n = 10)
[5] = Total bacterial isolates (n = 30)

CC1(C)S[C@@H]2[C@H](NC(=O)[C@H](N)c3ccccc3)C(=O)N2[C@H]1C(=O)O [Ampicillin]
MIC range ([1]; E. faecalis, 4 isolates): 1 mg/L (≈ 2.86 µM) | MIC50 ([1]; E. faecium, 16 isolates): 1 mg/L (≈ 2.86 µM) | MIC range ([1]; E. faecium, 16 isolates): 1 mg/L (≈ 2.86 µM) | MIC90 ([1]; E. faecium, 16 isolates, read-out: MIC90): 2 mg/L (≈ 5.72 µM) | MIC ([1]; E. faecium, 16 isolates, read-out: MIC mode): 1 mg/L (≈ 2.86 µM) | MIC ([1]; Enterococcus faecalis strain ATCC 29212, read-out: MIC of control strain (internal quality control)): 1 mg/L | MIC90 ([1]; Enterococcus isolates of Table 4, Test 2): 2 mg/L (≈ 5.72 µM) | MIC ([1]; Enterococcus, ATCC 29212 / VRE, Enterococcus spp. ATCC 29212, Test 1, read-out: MIC): 1 mg/L (≈ 2.86 µM) | MIC ([1]; Enterococcus, ATCC 29212 / VRE, Enterococcus spp. ATCC 29212, Test 2, read-out: MIC): 1 mg/L (≈ 2.86 µM) | MIC ([1]; Enterococcus, VRE, 20 isolates, read-out: MIC mode): 1 mg/L (≈ 2.86 µM) | MIC ([1]; Enterococcus, VRE, B09/2021, Test 1, read-out: MIC): 1 mg/L (≈ 2.86 µM) | MIC ([1]; Enterococcus, VRE, B09/2021, Test 2, read-out: MIC): 1 mg/L (≈ 2.86 µM) | MIC ([1]; Enterococcus, VRE, B09/2032, Test 1, read-out: MIC): 2 mg/L (≈ 5.72 µM) | MIC ([1]; Enterococcus, VRE, B09/2032, Test 2, read-out: MIC): 2 mg/L (≈ 5.72 µM) | MIC ([1]; Enterococcus, VRE, B09/2087, Test 1, read-out: MIC): 2 mg/L (≈ 5.72 µM) | MIC ([1]; Enterococcus, VRE, B09/2087, Test 2, read-out: MIC): 1 mg/L (≈ 2.86 µM) | MIC ([1]; Enterococcus, VRE, B09/2088, Test 1, read-out: MIC): 1 mg/L (≈ 2.86 µM) | MIC ([1]; Enterococcus, VRE, B09/2088, Test 2, read-out: MIC): 1 mg/L (≈ 2.86 µM) | MIC ([1]; Enterococcus, VRE, B09/2121, Test 1, read-out: MIC): 1 mg/L (≈ 2.86 µM) | MIC ([1]; Enterococcus, VRE, B09/2121, Test 2, read-out: MIC): 1 mg/L (≈ 2.86 µM) | MIC ([1]; Enterococcus, VRE, B09/2192, Test 1, read-out: MIC): 1 mg/L (≈ 2.86 µM) | MIC ([1]; Enterococcus, VRE, B09/2192, Test 2, read-out: MIC): 1 mg/L (≈ 2.86 µM) | MIC ([1]; Enterococcus, VRE, Enterococcus 008, Test 1, read-out: MIC): 1 mg/L (≈ 2.86 µM) | MIC ([1]; Enterococcus, VRE, Enterococcus 008, Test 2, read-out: MIC): 1 mg/L (≈ 2.86 µM) | MIC ([1]; Enterococcus, VRE, Enterococcus 009, Test 1, read-out: MIC): 1 mg/L (≈ 2.86 µM) | MIC ([1]; Enterococcus, VRE, Enterococcus 009, Test 2, read-out: MIC): 1 mg/L (≈ 2.86 µM) | MIC ([1]; Enterococcus, VRE, Enterococcus 010, Test 1, read-out: MIC): 2 mg/L (≈ 5.72 µM) | MIC ([1]; Enterococcus, VRE, Enterococcus 010, Test 2, read-out: MIC): 2 mg/L (≈ 5.72 µM) | MIC ([1]; Enterococcus, VRE, Enterococcus 011, Test 1, read-out: MIC): 1 mg/L (≈ 2.86 µM) | MIC ([1]; Enterococcus, VRE, Enterococcus 011, Test 2, read-out: MIC): 1 mg/L (≈ 2.86 µM) | MIC ([1]; Enterococcus, VRE, Enterococcus 012, Test 1, read-out: MIC): 0.5 mg/L (≈ 1.43 µM) | MIC ([1]; Enterococcus, VRE, Enterococcus 012, Test 2, read-out: MIC): 0.5 mg/L (≈ 1.43 µM) | MIC ([1]; Enterococcus, VRE, Enterococcus 013, Test 1, read-out: MIC): 2 mg/L (≈ 5.72 µM) | MIC ([1]; Enterococcus, VRE, Enterococcus 013, Test 2, read-out: MIC): 2 mg/L (≈ 5.72 µM) | MIC ([1]; Enterococcus, VRE, Enterococcus 014, Test 1, read-out: MIC): 1 mg/L (≈ 2.86 µM) | MIC ([1]; Enterococcus, VRE, Enterococcus 014, Test 2, read-out: MIC): 1 mg/L (≈ 2.86 µM) | MIC ([1]; Enterococcus, VRE, VRE 001, Test 1, read-out: MIC): 0.5 mg/L (≈ 1.43 µM) | MIC ([1]; Enterococcus, VRE, VRE 001, Test 2, read-out: MIC): 0.5 mg/L (≈ 1.43 µM) | MIC ([1]; Enterococcus, VRE, VRE 002, Test 1, read-out: MIC): 1 mg/L (≈ 2.86 µM) | MIC ([1]; Enterococcus, VRE, VRE 002, Test 2, read-out: MIC): 1 mg/L (≈ 2.86 µM) | MIC ([1]; Enterococcus, VRE, VRE 003, Test 1, read-out: MIC): 0.5 mg/L (≈ 1.43 µM) | MIC ([1]; Enterococcus, VRE, VRE 003, Test 2, read-out: MIC): 0.5 mg/L (≈ 1.43 µM) | MIC ([1]; Enterococcus, VRE, VRE 004, Test 1, read-out: MIC): 1 mg/L (≈ 2.86 µM) | MIC ([1]; Enterococcus, VRE, VRE 004, Test 2, read-out: MIC): 1 mg/L (≈ 2.86 µM) | MIC ([1]; Enterococcus, VRE, VRE 005, Test 1, read-out: MIC): 1 mg/L (≈ 2.86 µM) | MIC ([1]; Enterococcus, VRE, VRE 005, Test 2, read-out: MIC): 1 mg/L (≈ 2.86 µM) | MIC ([1]; Enterococcus, VRE, VRE 006, Test 1, read-out: MIC): 1 mg/L (≈ 2.86 µM) | MIC ([1]; Enterococcus, VRE, VRE 006, Test 2, read-out: MIC): 1 mg/L (≈ 2.86 µM) | MIC ([1]; Enterococcus, VRE, VRE 007, Test 1, read-out: MIC): 1 mg/L (≈ 2.86 µM) | MIC ([1]; Enterococcus, VRE, VRE 007, Test 2, read-out: MIC): 1 mg/L (≈ 2.86 µM) | MIC50 ([1]; Enterococcus, VRE, 20 isolates): 1 mg/L (≈ 2.86 µM) | MIC90 ([1]; VRE, 20 isolates): 2 mg/L (≈ 5.72 µM) | MIC90 ([1]; VRE, Enterococcus isolates of Table 4, Test 1, read-out: MIC90): 2 mg/L (≈ 5.72 µM) | MICrange ([2]; CA-MRSA (n = 10)): 8 to 128 µg/mL | MICrange [2, 4]: 0.25-16^ μg/ml | MIC ([2]; read-out: Observed MIC at 24-h, MRSA580, present study): > 128 mg/L | MIC ([2]; read-out: Observed MIC at 24-h, MRSA698, present study): 16 mg/L (≈ 45.8 µM) | MIC ([2]; read-out: Original MIC at 24-h, MRSA580, preliminary studies): > 128 mg/L | MIC ([2]; read-out: Original MIC at 24-h, MRSA698, preliminary studies): 16 mg/L (≈ 45.8 µM) | MIC ([2]; ATCC 49775 / MRSA / MSSA, read-out: Observed MIC at 24-h, ATCC 49775, present study): 0.25 mg/L (≈ 0.715 µM) | MIC50 ([2]; CA-MRSA (n = 10)): 64 mg/L (≈ 183 µM) | MIC90 ([2]; CA-MRSA (n = 10)): 128 mg/L (≈ 366 µM) | MIC50 ([2]; HA-MRSA (n = 10)): 64 mg/L (≈ 183 µM) | MIC90 ([2]; HA-MRSA (n = 10)): > 128 mg/L | MIC50 [2, 4]: 0.25 mg/L (≈ 0.715 µM) | MIC90 [2, 4]: 8 mg/L (≈ 22.9 µM) | MIC50 [2, 5]: 16 mg/L (≈ 45.8 µM) | MIC90 [2, 5]: 128 mg/L (≈ 366 µM) | MIC ([3]; E. coli, 2nd): 4 µg/mL (≈ 11.4 µM) | MIC ([3]; Escherichia coli, read-out: MIC (μg/ml) at 24 hours, E. coli, 24 hours, 1st and 2nd replicate rows): 4 µg/mL (≈ 11.4 µM) | MIC ([3]; Escherichia coli, E. coli, 1st, read-out: MIC): 4 µg/mL (≈ 11.4 µM)
